The numbers were not newly measured in patent US20090317451A1, “PRESSURE-SENSITIVE ADHESIVE FOR SKIN SURFACE AND/OR TRANSDERMAL SUBSTANCE DELIVERY” (priority 2008, published 2009), which cites them from elsewhere.

Structures can show the parent of a compound that is named as a salt.

The conditions of one data set: in glycerol; Merck 12th edition #886.
As for `CC(=O)Oc1ccccc1C(=O)O` [Aspirin, acetylsalicylic acid], the decomposition by moisture result was “glycerol hinders the decomposition”.

For the next data set the following is noted: solvent(s) in which soluble; Merck 12th edition or other reference.
Take `CC(C)Cn1cnc2c(N)nc3ccccc3c21` [Imiquimod]: the “Reported Solubility” value is reported as “Glycerol +”.

For `CC[C@@H]1C(=O)OC[C@@H]1Cc1cncn1C` [Pilocarpine], the “Reported Solubility” value is “Alcohol”.

For the molecule `COc1cc(/C=C/C(=O)CC(=O)/C=C/c2ccc(O)c(OC)c2)ccc1O` [Curcumin], the “Reported Solubility” value is reported as “Alcohol”.

In the case of `CC(C)Cc1ccc(C(C)C(=O)O)cc1` (centres unmarked) [Ibuprofen], the “Reported Solubility” value is given as “Alcohol”.

Consider `Nc1nc2c(ncn2COCCO)c(=O)[nH]1` [Acyclovir], for which the “Reported Solubility” value is “Alcohol”.

With `CC(CN1c2ccccc2Sc2ccccc21)N(C)C` (centres unmarked) [Promethazine], the “Reported Solubility” value is listed as “Alcohol”.

For `Oc1ccc(C2CNCCc3c2cc(O)c(O)c3Cl)cc1` (centres unmarked) [Fenoldopam], the “Reported Solubility” value is listed as “Alcohol”.

Turning to `CC(=O)N1CCN(c2ccc(OCC3COC(Cn4ccnc4)(c4ccc(Cl)cc4Cl)O3)cc2)CC1` (centres unmarked) [Ketoconazole], the “Reported Solubility” value is recorded as “Alcohol”.

With `CC(=O)Nc1ccc(O)cc1` [Acetaminophen], the “Reported Solubility” value is reported as “Alcohol”.

Turning to `O=C(CCCN1CCC(O)(c2ccc(Cl)cc2)CC1)c1ccc(F)cc1` [Haloperidol], the “Reported Solubility” value is recorded as “Alcohol”.

With `COc1cccc2c1C(=O)c1c(O)c3c(c(O)c1C2=O)C[C@@](O)(C(=O)CO)C[C@@H]3O[C@H]1C[C@H](N)[C@H](O)[C@H](C)O1` [Doxorubicin], the “Reported Solubility” value is on record as “Alcohol”.

Consider `C#C[C@]1(OC(C)=O)CC[C@H]2[C@@H]3CCC4=CC(=O)CC[C@@H]4[C@H]3CC[C@@]21C` [Norethindrone acetate], for which the “Reported Solubility” value is reported as “Alcohol”.

Turning to `Cc1cc(C2CCCCC2)n(O)c(=O)c1` [Ciclopirox], the “Reported Solubility” value is “Alcohol”.

Consider `CC(=O)O[C@H]1C(=O)[C@@]2(C)[C@H]([C@H](OC(=O)c3ccccc3)[C@]3(O)C[C@H](OC(=O)[C@H](O)[C@@H](NC(=O)c4ccccc4)c4ccccc4)C(C)=C1C3(C)C)[C@]1(OC(C)=O)CO[C@@H]1C[C@@H]2O` [Paclitaxel], for which the “Reported Solubility” value is listed as “Alcohol”.

For the molecule `CS(C)(=O)=O` [MSM, dimethyl sulfone, dimethyl sulfone], the “Reported Solubility” value is recorded as “Alcohol”.

Regarding `CC(=O)Oc1ccccc1C(=O)O` [Aspirin, acetylsalicylic acid], the “Reported Solubility” value is “Alcohol”.

As to `CC(C)(C)NCC(O)c1ccc(O)c(CO)c1` (centres unmarked) [Albuterol], the “Reported Solubility” value is “Alcohol”.

For `CCOC(=O)c1ccc(N)cc1` [Benzocaine], the “Reported Solubility” value is “Alcohol”.

`CC[C@H]1OC(=O)[C@H](C)[C@@H](O[C@H]2C[C@@](C)(OC)[C@@H](O)[C@H](C)O2)[C@H](C)[C@@H](O[C@@H]2O[C@H](C)C[C@H](N(C)C)[C@H]2O)[C@](C)(O)C[C@@H](C)C(=O)[C@H](C)[C@@H](O)[C@]1(C)O` [Erythromycin hydrate]: the “Reported Solubility” value was “Alcohol”.

For `Cc1ncc([N+](=O)[O-])n1CCO` [Netronidazole], the “Reported Solubility” value is listed as “Water, alcohol”.

For `CN(C/C=C/C#CC(C)(C)C)Cc1cccc2ccccc12` [Terbinafinehydrochloride], the “Reported Solubility” value is on record as “Alcohol”.

In the case of `CC(=O)OCC(CCn1cnc2cnc(N)nc21)COC(C)=O` [Famciclovir], the “Reported Solubility” value is recorded as “Alcohol”.

Take `CC12CCC(CC1=O)C2(C)C` (centres unmarked) [Camphor]: the “Reported Solubility” value is “Alcohol”.

On to `Nc1nc2c(ncn2CCC(CO)CO)c(=O)[nH]1` [Penciclovir], for which the “Reported Solubility” value is “Water”.

The data set is the same for the next values; noted with them: solvent(s) in which soluble; Merck 12th edition or other reference; listed as Liquimod.
For `CC(C)Cn1cnc2c(N)nc3ccccc3c21` [Imiquimod], the “Reported Solubility” value is on record as “Alcohol”.
